Reference: article PMC8318231, “Rate-of-Kill (RoK) assays to triage large compound sets for Chagas disease drug discovery: Application to GSK Chagas Box” (PLoS Neglected Tropical Diseases, 2021)

Assays:
[1] = system: T. cruzi intracellular amastigotes in H9c2 cells; experiment: Rate-of-Kill (RoK) high-content imaging assay, amastigotes per cell (AM/CELL) and curve descriptors; format: cell-based, Trypanosoma cruzi; parameters: key to ME_24h / ME_48h / ME_72h: % reduction in parasite burden (cidal response); t50pct_MCC50 / t50pct_Cmax: unit not given here; settings: for ME_24h: 24h; for ME_48h: 48h; for ME_72h: 72h; for t50%_Cmax / tlag_Cmax / t50pct_Cmax: at Cmax; for ME_24h (%): maximum effect at 24 h; for ME_24h (%) / ME_48h (%) / ME_72h (%): RoK assay; for ME_48h (%): maximum effect at 48 h; for ME_72h (%): maximum effect at 72 h
Procedure, shortened: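 H9c2 cardiomyocytes infected with T. cruzi trypomastigotes (MOI 8, 18 h), then compounds tested at 5 μM single shot or 11-point 1/3 dilution from 50 μM. DRAQ5-stained nuclei imaged over a time course. Amastigotes per cell normalised to infected cells at 4 h (0%) and non-infected cells (100%).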

TcCYP51 = settings: formerly reported; cited from earlier work
[2] = maximum percentage of parasite burden reduction reached by any concentration, 24 hours

## CN(C)Cc1ccc(-c2ccc(S(=O)(=O)NCC3CCCO3)c(F)c2)cc1.O=C(O)C(F)(F)F (centres unmarked) [TCMDC-143085]
[1]; figure 5
  ME_24h: -52.4333
  ME_48h: 20.7837
  ME_72h: 66.9859
  t50pct_Cmax: 72
  tlag_Cmax: 24
  MCCE: 0.6173
[1]; RoK curve descriptor
  MCC50: 1.9 µM
  MCCE: 0.6 µM
[1]; Time 4, sheet figure 4 A
  AM/CELL NORM: -2.755
[1]; Time 24, sheet figure 4 A
  AM/CELL NORM: -52.4333
[1]; Time 48, sheet figure 4 A
  AM/CELL NORM: 10.0788
[1]; Time 72, sheet figure 4 A
  AM/CELL NORM: 59.3639
[1]
  t50%_Cmax: 72.0 h
  tlag_Cmax: 24.0 h
  ME_24h (%): -52.4%
  ME_48h (%): 20.8%
  ME_72h (%): 67.0%
[1]; at MCC50
  t50%_MCC50: 72.0 h
  tlag_MCC50: 24.0 h
[1]; at MCC50, figure 5
  t50pct_MCC50: 72
  tlag_MCC50: 24
[1]; figure 5, in µM
  MCC50: 1.852
[1]; [2]
  ME 24h (maximum effect at 24 hours, intracellular amastigotes): -52.4333%
TcCYP51
  CYP51 pIC50: 4.4

## CCOc1ccc(NC(=O)C=Cc2ccc(CC)o2)cc1 [TCMDC-143160]
[1]; figure 5
  ME_24h: -214.627
  ME_48h: -667.694
  ME_72h: -988.393
  t50pct_Cmax: 72
  tlag_Cmax: 72
  MCC50: 50 µM
  MCCE: 16.6667
[1]; RoK curve descriptor
  MCCE: 16.7 µM
[1]; Time 4, figure 4 A
  AM/CELL NORM: 1.332
[1]; Time 24, figure 4 A
  AM/CELL NORM: -214.627
[1]; Time 48, figure 4 A
  AM/CELL NORM: -667.694
[1]; Time 72, figure 4 A
  AM/CELL NORM: -988.393
[1]
  tlag_Cmax: 72.0 h
  ME_24h (%): -214.6%
  ME_48h (%): -667.7%
  ME_72h (%): -988.4%
[1]; at MCC50, figure 5
  t50pct_MCC50: 72
  tlag_MCC50: 72
[1]; [2]
  ME 24h (maximum effect at 24 hours, intracellular amastigotes): 0.6973%
TcCYP51
  CYP51 pIC50: < 4

## CC(C)N(C(=O)CN1C(=O)C(N)C(=O)N(c2ccccc2)c2ccccc21)c1ccccc1 (centres unmarked) [TCMDC-143071]
[1]; figure 5
  ME_24h: -154.934
  ME_48h: -40.5762
  ME_72h: 63.3605
  t50pct_Cmax: 72
  tlag_Cmax: 24
  MCCE: 0.6173
[1]; RoK curve descriptor
  MCC50: 5.6 µM
  MCCE: 0.6 µM
[1]; Time 4, sheet figure 4 A
  AM/CELL NORM: -6.592
[1]; Time 24, sheet figure 4 A
  AM/CELL NORM: -184.227
[1]; Time 48, sheet figure 4 A
  AM/CELL NORM: -40.5762
[1]; Time 72, sheet figure 4 A
  AM/CELL NORM: 57.0597
[1]
  t50%_Cmax: 72.0 h
  tlag_Cmax: 24.0 h
  ME_24h (%): -154.9%
  ME_48h (%): -40.6%
  ME_72h (%): 63.4%
[1]; at MCC50
  t50%_MCC50: 72.0 h
  tlag_MCC50: 24.0 h
[1]; at MCC50, figure 5
  t50pct_MCC50: 72
  tlag_MCC50: 24
[1]; figure 5, in µM
  MCC50: 5.556
[1]; [2]
  ME 24h (maximum effect at 24 hours, intracellular amastigotes): -154.934%
TcCYP51
  CYP51 pIC50: 6.5

## COc1ccc(C2CC(c3ccccc3Cl)=NN2C(=O)CNC(=O)C2CCC2)cc1 (centres unmarked) [TCMDC-143130]
[1]; figure 5
  ME_24h: 26.5695
  ME_48h: 65.3197
  ME_72h: 85.0018
  t50pct_Cmax: 48
  tlag_Cmax: 4
  MCCE: 1.852
[1]; RoK curve descriptor
  MCC50: 5.6 µM
  MCCE: 1.9 µM
[1]; Time 4, sheet figure 4 A
  AM/CELL NORM: 21.8567
[1]; Time 24, sheet figure 4 A
  AM/CELL NORM: 26.5695
[1]; Time 48, sheet figure 4 A
  AM/CELL NORM: 65.3197
[1]; Time 72, sheet figure 4 A
  AM/CELL NORM: 85.0018
[1]
  t50%_Cmax: 48.0 h
  tlag_Cmax: 4.0 h
  ME_24h (%): 26.6%
  ME_48h (%): 65.3%
  ME_72h (%): 85.0%
[1]; at MCC50
  t50%_MCC50: 72.0 h
  tlag_MCC50: 4.0 h
[1]; at MCC50, figure 5
  t50pct_MCC50: 72
  tlag_MCC50: 4
[1]; figure 5, in µM
  MCC50: 5.556
[1]; [2]
  ME 24h (maximum effect at 24 hours, intracellular amastigotes): 26.5695%
TcCYP51
  CYP51 pIC50: 4.3

## CC[C@@H]([C@H](C)O)n1ncn(-c2ccc(N3CCN(c4ccc(OC[C@@H]5CO[C@@](Cn6cncn6)(c6ccc(F)cc6F)C5)cc4)CC3)cc2)c1=O [Posaconazole, reference compound]
[1]
  ME (maximum effect) in RoK assay (in words): lower ME
  tlag (in words): longer tlag_MCC50 and tlag_Cmax values
  t50%_Cmax: 65.9 h
  tlag_Cmax: 24.0 h
  ME_24h (%): -76.4%
  ME_48h (%): -0.32%
  ME_72h (%): 50.7%
[1]; figure 5
  ME_24h: -76.4226
  ME_48h: -0.321
  ME_72h: 50.6685
  t50pct_Cmax: 65.8667
  tlag_Cmax: 24
  MCCE: 0.002879
[1]; Fig 2C, average, lowest concentration that decreases AUC of AM/CELL versus time by at least 50% vs infected control
  MCCE (Minimal Compound Concentration with Effect): 0.003 µM
[1]; Fig 2C, average, lowest concentration that reduces 50% of the parasite load measured at zero time, listed as POS
  MCC50 (Minimal Cidal Concentration 50%): 6.2 µM
[1]; Fig 2C, average, time to reduce 50% of initial parasite load at maximum concentration
  t50pct_Cmax (t50%_Cmax): 65.9 h
[1]; RoK curve descriptor
  MCC50: 6.2 µM
  MCCE: 0.003 µM
[1]; Time 4, figure 4 A
  AM/CELL NORM: 5.09
[1]; Time 24, figure 4 A
  AM/CELL NORM: -32.2625
[1]; Time 48, figure 4 A
  AM/CELL NORM: -0.614
[1]; Time 72, figure 4 A
  AM/CELL NORM: 48.3608
[1]; Trypanosoma cruzi, H9c2, maximum percentage of parasite burden reduction reached by any concentration, 24 hours, read-out: ME 24h (maximum effect at 24 hours, intracellular amastigotes)
  Emax: -63%
[1]; at MCC50
  t50%_MCC50: 54.2 h
  tlag_MCC50: 29.3 h
[1]; at MCC50, figure 5
  t50pct_MCC50: 61.3333
  tlag_MCC50: 46.4
[1]; figure 5, in µM
  MCC50: 23.7078
TcCYP51
  CYP51 pIC50: 7.3

## O=C(CSc1ccc(-c2ccccn2)nn1)Nc1ccc(Cl)cc1 [TCMDC-143552]
[1]; figure 5
  ME_24h: -18.5463
  ME_48h: -23.0005
  ME_72h: 85.8726
  t50pct_Cmax: 72
  tlag_Cmax: 48
  MCCE: 5.556
[1]; RoK curve descriptor
  MCC50: 16.7 µM
  MCCE: 5.6 µM
[1]; Time 4, sheet figure 4 A
  AM/CELL NORM: 7.37
[1]; Time 24, sheet figure 4 A
  AM/CELL NORM: -202.586
[1]; Time 48, sheet figure 4 A
  AM/CELL NORM: -606.539
[1]; Time 72, sheet figure 4 A
  AM/CELL NORM: -482.613
[1]
  tlag_Cmax: 48.0 h
  ME_24h (%): -18.6%
  ME_48h (%): -23.0%
  ME_72h (%): 85.9%
[1]; at MCC50
  t50%_MCC50: 72.0 h
  tlag_MCC50: 48.0 h
[1]; at MCC50, figure 5
  t50pct_MCC50: 72
  tlag_MCC50: 48
[1]; figure 5, in µM
  MCC50: 16.6667
[1]; [2]
  ME 24h (maximum effect at 24 hours, intracellular amastigotes): -18.5463%
TcCYP51
  CYP51 pIC50: < 4

## Cc1cc(N(C)C)nc(Nc2ccccc2C)n1 [TCMDC-143109]
[1]; figure 5
  ME_24h: 47.5747
  ME_48h: 78.0835
  ME_72h: 82.1728
  t50pct_Cmax: 48
  tlag_Cmax: 4
  MCCE: 1.852
[1]; RoK curve descriptor
  MCC50: 5.6 µM
  MCCE: 1.9 µM
[1]; Time 4, sheet figure 4 A
  AM/CELL NORM: 2.321
[1]; Time 24, sheet figure 4 A
  AM/CELL NORM: 36.6087
[1]; Time 48, sheet figure 4 A
  AM/CELL NORM: 78.0835
[1]; Time 72, sheet figure 4 A
  AM/CELL NORM: 76.3621
[1]
  t50%_Cmax: 48.0 h
  tlag_Cmax: 4.0 h
  ME_24h (%): 47.6%
  ME_48h (%): 78.1%
  ME_72h (%): 82.2%
[1]; at MCC50
  t50%_MCC50: 48.0 h
  tlag_MCC50: 4.0 h
[1]; at MCC50, figure 5
  t50pct_MCC50: 48
  tlag_MCC50: 4
[1]; figure 5, in µM
  MCC50: 5.556
[1]; [2]
  ME 24h (maximum effect at 24 hours, intracellular amastigotes): 47.5747%
TcCYP51
  CYP51 pIC50: < 4

## COc1ccc(CN(C)Cc2ccncc2)cc1-c1ccc(S(=O)(=O)NC2CCC2)s1.O=C(O)C(F)(F)F.O=C(O)C(F)(F)F [TCMDC-143084]
[1]; figure 5
  ME_24h: -28.7145
  ME_48h: 25.1182
  ME_72h: 44.4783
  t50pct_Cmax: 72
  tlag_Cmax: 24
  MCC50: 50 µM
  MCCE: 0.6173
[1]; RoK curve descriptor
  MCCE: 0.6 µM
[1]; Time 4, sheet figure 4 A
  AM/CELL NORM: -8.521
[1]; Time 24, sheet figure 4 A
  AM/CELL NORM: -28.7145
[1]; Time 48, sheet figure 4 A
  AM/CELL NORM: 25.1182
[1]; Time 72, sheet figure 4 A
  AM/CELL NORM: 44.4783
[1]
  tlag_Cmax: 24.0 h
  ME_24h (%): -28.7%
  ME_48h (%): 25.1%
  ME_72h (%): 44.5%
[1]; at MCC50, figure 5
  t50pct_MCC50: 72
  tlag_MCC50: 72
[1]; [2]
  ME 24h (maximum effect at 24 hours, intracellular amastigotes): -28.7145%
TcCYP51
  CYP51 pIC50: 7.1
